Measurements: PubChem BioAssay (NCI)
Where “and” joins values, the source holds several entries; their conditions need not be identical. Equal values may be shown once.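 Compound exposure: 48 hours, 5 concentrations, 96-well plates. GI50 marks 50% less growth. TGI: total growth inhibition.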

Tests used:
Assay in all cases: DTP human tumour cell line panel, 48 h
[1] = system: RXF 393 renal
[2] = system: UACC-62 melanoma
[3] = system: HS 578T breast
[4] = system: SR leukemia
[5] = system: OVCAR-3 ovarian
[6] = system: NCI-H460 lung
[7] = system: U251 CNS
[8] = system: MCF7 breast
[9] = system: MDA-N
[10] = system: TK-10 renal

c1ccc(/C(=N/Nc2ccncn2)c2ccccn2)cc1
TGI [1]: > 100 µM
TGI [2]: > 100 µM
TGI [3]: 29.9 µM
TGI [4]: > 100 µM
TGI [5]: 32.5 µM
TGI [6]: > 100 µM
TGI [7]: > 100 µM
TGI [8]: > 100 µM
TGI [9]: > 100 µM

C=CCOn1c(C=C)nc2ccc(C)cc21
TGI [2]: 26.8 µM
TGI [10]: 32.4 µM
TGI [3]: > 100 µM
TGI [4]: 33.4 µM
TGI [5]: 40.9 µM
TGI [6]: 32.8 µM
TGI [7]: 26 µM
TGI [8]: 24.9 µM
TGI [9]: 35.7 µM

Cc1c(C(=O)OCc2ccccc2)[n+](=O)c2cc(Cl)c(Cl)cc2n1[O-]
TGI [1]: 36 µM
TGI [2]: 31 µM
TGI [10]: 40.3 µM
TGI [3]: 47.4 µM
TGI [4]: 21.4 µM
TGI [5]: 25 µM
TGI [6]: 30.7 µM
TGI [7]: > 100 µM
TGI [8]: 54.4 µM
TGI [9]: 40.7 µM

Cc1ccc(S(=O)CC(CF)OCn2cc(C)c(=O)[nH]c2=O)cc1 (configuration not stated)
TGI [2]: > 100 µM
TGI [10]: > 100 µM
TGI [3]: > 100 µM
TGI [4]: > 100 µM
TGI [5]: > 100 µM
TGI [6]: > 100 µM
TGI [7]: > 100 µM
TGI [8]: > 100 µM
TGI [9]: > 100 µM

CC1=C2C(=CO[C@H](C)[C@H]2C)C(=O)C(C(=O)O)=C1O
GI50 [1]: 21.9 µM
TGI [1]: 35.8 µM and 48.4 µM
TGI [2]: 85.6 µM and 40.4 µM
TGI [10]: 63.7 µM
TGI [3]: 96.4 µM
TGI [4]: 66.7 µM
GI50 [5]: 20.2 µM
TGI [5]: 43.2 µM and 47 µM
GI50 [6]: 30.1 µM and 73 µM
TGI [6]: > 90.1 µM and 149 µM
GI50 [7]: 18.8 µM
TGI [7]: 43.4 µM and 41 µM
GI50 [8]: 24.5 µM
TGI [8]: 52.8 µM and 51.9 µM
TGI [9]: 72.2 µM

Cc1cc2c([nH]c3ccccc32)c(O)c1-c1c(C)cc2c([nH]c3ccccc32)c1O
TGI [1]: 23.1 µM
TGI [10]: 31.2 µM
TGI [3]: 32.7 µM
GI50 [4]: 3.16 µM
TGI [4]: 16 µM
TGI [5]: 29.3 µM
TGI [6]: 16.7 µM
TGI [7]: 23.7 µM
GI50 [8]: 11.2 µM
TGI [8]: 25 µM
GI50 [9]: 14.7 µM
TGI [9]: 27.8 µM

C=C(C)[C@H]1C2=CC(C)=C(O2)[C@@H](O[C@@H]2c3oc(cc3C)[C@H](C(=C)C)[C@H]3C=C(CC[C@H]2C(=C)C)C(=O)O3)[C@H](C(=C)C)CCC2=C[C@H]1OC2=O
TGI [2]: > 100 µM
TGI [10]: > 100 µM
TGI [3]: > 100 µM
TGI [4]: > 100 µM
TGI [5]: > 100 µM
TGI [6]: > 100 µM
TGI [7]: > 100 µM
TGI [8]: > 100 µM
TGI [9]: > 100 µM

N#Cc1cc2c(n(C3OC(CO)C(O)C(O)C3O)c1=S)CCCCCC2 (configuration not stated)
TGI [1]: > 100 µM
TGI [2]: > 100 µM
TGI [10]: > 100 µM
TGI [3]: > 100 µM
TGI [4]: > 100 µM
TGI [5]: > 100 µM
TGI [6]: > 100 µM
TGI [7]: > 100 µM
TGI [8]: > 100 µM
TGI [9]: > 100 µM

C#CCn1c(=O)c(C)cn(/C(=C\C(=O)OCC)C(=O)OCC)c1=O
TGI [1]: 4.49 µM
TGI [2]: 23 µM
TGI [10]: 3.44 µM
TGI [3]: 62 µM
TGI [4]: > 27.6 µM
TGI [5]: 18.4 µM
TGI [6]: 8.06 µM
TGI [7]: 15 µM
TGI [8]: 11.9 µM
TGI [9]: 22.2 µM

O=C1NC(=O)C(C(CC(=O)c2ccc(Cl)cc2)c2ccc(Cl)cc2)C(=O)N1 (configuration not stated)
TGI [2]: > 100 µM
TGI [3]: > 100 µM
TGI [4]: > 100 µM
TGI [5]: > 100 µM
TGI [6]: > 100 µM
TGI [7]: > 100 µM
TGI [8]: 44.2 µM
TGI [9]: > 100 µM

Nc1ccc(S(=O)(=O)Nc2nc3ccccc3nc2N2CCCCCC2)cc1
TGI [1]: 35.5 µM
TGI [2]: 39.8 µM
TGI [10]: > 100 µM
TGI [3]: > 100 µM
TGI [4]: > 100 µM
TGI [5]: 40.2 µM
TGI [6]: 61.2 µM
TGI [7]: 46.4 µM
TGI [8]: > 100 µM
TGI [9]: > 100 µM

CN1CC2=C(NC(=S)NC2c2ccccc2)/C(=C/c2ccccc2)C1 (configuration not stated)
TGI [2]: > 100 µM
TGI [10]: > 100 µM
TGI [3]: > 100 µM
TGI [4]: > 100 µM
TGI [5]: > 100 µM
TGI [6]: > 100 µM
TGI [7]: > 100 µM
TGI [8]: > 100 µM
TGI [9]: > 100 µM

Cc1cc(C)c2c(c1)C(=O)/C(=C/c1ccccc1C(=O)O)C2
TGI [1]: > 100 µM
TGI [2]: > 100 µM
TGI [10]: > 100 µM
TGI [3]: > 100 µM
TGI [4]: > 100 µM
TGI [5]: > 100 µM
TGI [6]: > 100 µM
TGI [7]: > 100 µM
TGI [8]: > 100 µM
TGI [9]: > 100 µM

COc1ccc(C(=O)CC(c2ccccc2)[C@H]2C(c3ccc(OC)cc3)=Nc3c(nc(SC)n(C)c3=O)NC2c2ccccc2)cc1 (some centres not stated)
TGI [1]: > 100 µM
TGI [2]: > 100 µM
TGI [10]: > 100 µM
TGI [3]: > 100 µM
TGI [4]: > 100 µM
TGI [5]: > 100 µM
TGI [6]: > 100 µM
TGI [7]: > 100 µM
TGI [8]: > 100 µM
TGI [9]: > 100 µM

Cc1nc(N)c(N2CCN(CN)CC2)c(=O)[nH]1
TGI [10]: > 100 µM
TGI [3]: > 100 µM
TGI [4]: > 100 µM
TGI [5]: > 100 µM
TGI [6]: > 100 µM
TGI [7]: > 100 µM
TGI [8]: > 100 µM
TGI [9]: > 100 µM

CN1C(=O)C(O)C[C@@H]1c1ccccc1 (some centres not stated)
TGI [1]: > 100 µM
TGI [2]: > 100 µM
TGI [10]: > 100 µM
TGI [3]: > 100 µM
TGI [4]: > 100 µM
TGI [5]: > 100 µM
TGI [7]: > 100 µM
TGI [8]: > 100 µM
TGI [9]: > 100 µM

Cc1ccc(S(=O)(=O)Nc2nnc(S(N)(=O)=O)s2)cc1
TGI [1]: > 100 µM
TGI [2]: > 100 µM
TGI [10]: > 100 µM
TGI [3]: > 100 µM
TGI [4]: > 100 µM
TGI [5]: > 100 µM
TGI [6]: > 100 µM
TGI [7]: > 100 µM
TGI [8]: > 100 µM
TGI [9]: > 100 µM

CC(C)(C)OC(=O)NCC(CNC(=O)OC(C)(C)C)c1nc(C(N)=O)cs1
TGI [1]: > 100 µM
TGI [2]: > 100 µM
TGI [10]: > 100 µM
TGI [3]: > 100 µM
TGI [4]: > 100 µM
TGI [5]: > 100 µM
TGI [6]: > 100 µM
TGI [7]: > 100 µM
TGI [8]: > 100 µM
TGI [9]: > 100 µM

O=C1CC(=O)n2cnc3cccc(c32)N1
TGI [1]: > 100 µM
TGI [2]: > 100 µM
TGI [3]: > 100 µM
TGI [4]: > 100 µM
TGI [5]: > 100 µM
TGI [6]: > 100 µM
TGI [7]: > 100 µM
TGI [8]: > 100 µM
TGI [9]: > 100 µM

CCCSc1ccc2[nH]c(N3C(=O)/C(=C/c4ccccc4)N=C3c3ccccc3)cc2c1
TGI [1]: > 50 µM
TGI [2]: > 50 µM
TGI [3]: > 50 µM
TGI [4]: > 50 µM
TGI [8]: > 50 µM
TGI [9]: 20.1 µM
